Reference: ChEMBL document CHEMBL1201862, “PubChem BioAssay data set” (2004)
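The compound was tested at five concentrations on cells cultured in 96-well plates, with a 48-hour exposure period. At the GI50, growth is halved.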 Calls of active or inactive are those of the source. Cut-off read from the data, not from the text of the source: active = GI50 up to about 1.1 µM and inactive = higher.

Experiments:
Assay in all cases: NCI-60 cell line screen, 48 h
NCI-H522 = tested on: NCI-H522
UACC-257 = tested on: UACC-257
NCI-H460 = tested on: NCI-H460
SK-MEL-5 = tested on: SK-MEL-5
SW-620 = tested on: SW-620
NCI-H226 = tested on: NCI-H226
K562 = tested on: K562
IGROV-1 = tested on: IGROV-1
MDA-MB-231 = tested on: MDA-MB-231
OVCAR-5 = tested on: OVCAR-5
OVCAR-4 = tested on: OVCAR-4
NCI-H23 = tested on: NCI-H23
CCRF-CEM = tested on: CCRF-CEM
RPMI-8226 = tested on: RPMI-8226
SF-268 = tested on: SF-268
HL-60 = tested on: HL-60
SR = tested on: SR
MCF7 = tested on: MCF7
HOP-62 = tested on: HOP-62
MOLT-4 = tested on: MOLT-4
BT-549 = tested on: BT-549
SN12C = tested on: SN12C
SNB-75 = tested on: SNB-75
SF-539 = tested on: SF-539
A498 = tested on: A498
MDA-N = tested on: MDA-N
HCT-15 = tested on: HCT-15
OVCAR-8 = tested on: OVCAR-8
A549 = tested on: A549
EKVX = tested on: EKVX
HOP-92 = tested on: HOP-92
PC-3 = tested on: PC-3
M14 = tested on: M14
LOX IMVI = tested on: LOX IMVI
SK-MEL-28 = tested on: SK-MEL-28
ACHN = tested on: ACHN
T47D = tested on: T47D
OVCAR-3 = tested on: OVCAR-3
CAKI-1 = tested on: CAKI-1
Hs-578T = tested on: Hs-578T
TK-10 = tested on: TK-10
SNB-19 = tested on: SNB-19
U-251 = tested on: U-251
UO-31 = tested on: UO-31
HCC 2998 = tested on: HCC 2998
DU-145 = tested on: DU-145
KM12 = tested on: KM12
SF-295 = tested on: SF-295
RXF 393 = tested on: RXF 393
HCT-116 = tested on: HCT-116
Malme-3M = tested on: Malme-3M
HT-29 = tested on: HT-29
786-0 = tested on: 786-0
SK-OV-3 = tested on: SK-OV-3
NCI/ADR-RES = tested on: NCI/ADR-RES
COLO 205 = tested on: COLO 205
SK-MEL-2 = tested on: SK-MEL-2
UACC-62 = tested on: UACC-62
MDA-MB-435 = tested on: MDA-MB-435

`CN(CC(=O)Nc1ccccc1C(=O)O)c1ccccc1` was tested, and the GI50 (NCI-H522) was > 100 µM (inactive), the GI50 (UACC-257) was > 100 µM (inactive) and the GI50 (NCI-H460) was > 100 µM (inactive). For the same compound, the GI50 (SK-MEL-5) was > 100 µM (inactive), the GI50 (SW-620) was 90.2 µM (inactive) and the GI50 (NCI-H226) was > 100 µM (inactive). For the same compound, the GI50 (K562) was > 100 µM (inactive), the GI50 (IGROV-1) was > 100 µM (inactive) and the GI50 (MDA-MB-231) was > 100 µM (inactive). The GI50 (OVCAR-5) was > 100 µM (inactive), the GI50 (OVCAR-4) was > 100 µM (inactive) and the GI50 (NCI-H23) was > 100 µM (inactive). The GI50 (CCRF-CEM) was > 100 µM (inactive), the GI50 (RPMI-8226) was > 100 µM (inactive) and the GI50 (SF-268) was > 100 µM (inactive). The GI50 (HL-60) was > 100 µM (inactive), the GI50 (SR) was > 100 µM (inactive) and the GI50 (MCF7) was > 100 µM (inactive). For the same compound, the GI50 (HOP-62) was > 100 µM (inactive), the GI50 (MOLT-4) was > 100 µM (inactive) and the GI50 (BT-549) was > 100 µM (inactive). For the same compound, the GI50 (SN12C) was 40.6 µM (inactive), the GI50 (SNB-75) was > 100 µM (inactive) and the GI50 (SF-539) was > 100 µM (inactive). The GI50 (A498) was > 100 µM (inactive), the GI50 (MDA-N) was > 100 µM (inactive) and the GI50 (HCT-15) was 67.1 µM. The GI50 (OVCAR-8) was > 100 µM (inactive), the GI50 (A549) was > 100 µM (inactive) and the GI50 (EKVX) was > 100 µM (inactive). For the same compound, the GI50 (HOP-92) was > 100 µM (inactive), the GI50 (PC-3) was > 100 µM (inactive) and the GI50 (M14) was > 100 µM (inactive). The GI50 (LOX IMVI) was > 100 µM (inactive), the GI50 (SK-MEL-28) was > 100 µM (inactive) and the GI50 (ACHN) was > 100 µM (inactive). For the same compound, the GI50 (T47D) was > 100 µM (inactive), the GI50 (OVCAR-3) was > 100 µM (inactive) and the GI50 (CAKI-1) was > 100 µM (inactive). For the same compound, the GI50 (Hs-578T) was > 100 µM (inactive), the GI50 (TK-10) was > 100 µM (inactive) and the GI50 (SNB-19) was > 100 µM (inactive). For the same compound, the GI50 (U-251) was > 100 µM (inactive), the GI50 (UO-31) was > 100 µM (inactive) and the GI50 (HCC 2998) was > 100 µM (inactive). The GI50 (DU-145) was > 100 µM (inactive), the GI50 (KM12) was > 100 µM (inactive) and the GI50 (SF-295) was > 100 µM (inactive). For the same compound, the GI50 (RXF 393) was > 100 µM (inactive), the GI50 (HCT-116) was 84.3 µM (inactive) and the GI50 (Malme-3M) was > 100 µM (inactive). The GI50 (HT-29) was > 100 µM (inactive) and the GI50 (786-0) was > 100 µM (inactive).
`CCN(CC)C(=S)SS(=O)(=O)c1ccc(NC(C)=O)cc1` was tested, and the GI50 (NCI-H522) was < 0.0213 µM (active), the GI50 (UACC-257) was 21.8 µM (inactive) and the GI50 (NCI-H460) was 26.2 µM (inactive). The GI50 (SK-MEL-5) was 0.778 µM (active), the GI50 (SW-620) was 16.7 µM (inactive) and the GI50 (NCI-H226) was > 59.7 µM (inactive). The GI50 (K562) was 33.9 µM (inactive), the GI50 (MDA-MB-231) was 17 µM (inactive) and the GI50 (OVCAR-5) was 24.5 µM (inactive). For the same compound, the GI50 (OVCAR-4) was 20.4 µM (inactive), the GI50 (NCI-H23) was 24 µM (inactive) and the GI50 (SK-OV-3) was 40.5 µM (inactive). For the same compound, the GI50 (RPMI-8226) was 18.5 µM (inactive), the GI50 (SF-268) was 28.9 µM (inactive) and the GI50 (HL-60) was 23.9 µM (inactive). The GI50 (SR) was 0.0226 µM (active), the GI50 (HOP-62) was 18.1 µM (inactive) and the GI50 (BT-549) was 39.3 µM (inactive). The GI50 (SN12C) was 18.2 µM (inactive), the GI50 (NCI/ADR-RES) was 28 µM (inactive) and the GI50 (SNB-75) was 25.4 µM (inactive). The GI50 (COLO 205) was 25.6 µM (inactive), the GI50 (A498) was > 55.6 µM (inactive) and the GI50 (SK-MEL-2) was 41.7 µM (inactive). The GI50 (MDA-N) was 27.6 µM (inactive), the GI50 (HCT-15) was 30.9 µM and the GI50 (UACC-62) was 19.9 µM (inactive). The GI50 (MDA-MB-435) was 17.1 µM (inactive), the GI50 (OVCAR-8) was 15.7 µM (inactive) and the GI50 (A549) was 2.21 µM (inactive). For the same compound, the GI50 (EKVX) was 44.5 µM (inactive), the GI50 (HOP-92) was 19.8 µM (inactive) and the GI50 (PC-3) was 27.1 µM (inactive). The GI50 (M14) was 17.1 µM (inactive), the GI50 (LOX IMVI) was 15.9 µM (inactive) and the GI50 (SK-MEL-28) was 17.3 µM (inactive). For the same compound, the GI50 (ACHN) was 36.1 µM (inactive), the GI50 (T47D) was 24.9 µM (inactive) and the GI50 (OVCAR-3) was 31.7 µM (inactive). The GI50 (CAKI-1) was 18.8 µM (inactive), the GI50 (Hs-578T) was 45 µM (inactive) and the GI50 (TK-10) was 32.6 µM (inactive). The GI50 (SNB-19) was 38.1 µM (inactive), the GI50 (U-251) was 18 µM (inactive) and the GI50 (UO-31) was 19.5 µM (inactive). For the same compound, the GI50 (HCC 2998) was 31.6 µM (inactive), the GI50 (DU-145) was 22.6 µM (inactive) and the GI50 (KM12) was 55.8 µM (inactive). The GI50 (SF-295) was 28.2 µM (inactive), the GI50 (RXF 393) was 15.2 µM (inactive) and the GI50 (HCT-116) was 16 µM (inactive). The GI50 (Malme-3M) was 15.9 µM (inactive), the GI50 (HT-29) was 24.8 µM (inactive) and the GI50 (786-0) was 17.5 µM (inactive).
